Source: patent publication US20020103131A1, “Prevention of diabetes by administration of GnRH antagonists” (priority 2001, published 2002)
Entries after “also recorded” stand apart in the source; their conditions may differ.

Key:
Format in all cases: in vivo
[1] = tested on: gonadectomized male NOD mice; assay: Incidence and onset of diabetes in gonadectomized male NOD mice; conditions: 100 μg subcutaneously six times weekly
From the text: (§1) The well-characterized NOD mice were used throughout the study. Male and female mice were purchased from the Jackson Laboratory (Bar Harbor, Me.). These mice are art-recognized animal models used in diabetes research. (Makino et al., (1980) Breeding of a Non-obese Diabetic Strain of Mice. Exp Anim, 29, 1-13; Miyazaki, A. T., et al, (1985) Predominance of T Lymphocytes in Pancreatic Islets and Spleen in Prediabetic Non-obese Diabetic (Nod) Mice: a Longitudinal Study. Clin Exp immunol, 60, 622-630)
(§2) Both intact and gonadectomized mice (GDX) were used. […] To compare the effects of GnRH agonists and antagonists, gonadectomized animals were randomized at 14 to 18 days of age and begun immediately in one of the following main treatment groups: GnRH agonist; Antide; vehicle. One group of gonadectomized males was treated with Nal-Glu, as an additional control. […]
(§3) Total immunoglobulin G concentrations were measured by single radial immunodiffusion assay using immunodiffusion plates containing monospecific antiserum for IgG (ICN Biomedicals, Inc., Costa Mesa, Calif.). […] Glycosuria was scored by comparison to reference standards on a scale of 0 to 4 as follows: negative=0; 30 mg/dL=1; 100 mg/dL=2; 300 mg/dL=3;>1000 mg/dL=4.
(§4) Serum immunoglobulin measurements were compared by two-tailed Student's paired t-tests. Percentages of mice remaining diabetes-free was assessed by Mantel-Haenszel methodology. […]

gonadectomized NOD mice = assay: Serum total immunoglobulin G concentrations (single radial immunodiffusion) in gonadectomized NOD mice; conditions: 100 μg subcutaneously six times weekly, 8 weeks of treatment, compared to vehicle / sham operated, FIG. 1
From the text: as §1, §2, §3, §4

NOD mice = assay: Serum prolactin by radioimmunoassay in treated NOD mice; conditions: NOD mice under agonist or antagonist treatment
Experimental: Both intact and gonadectomized mice (GDX) were used. […] To compare the effects of GnRH agonists and antagonists, gonadectomized animals were randomized at 14 to 18 days of age and begun immediately in one of the following main treatment groups: GnRH agonist; Antide; vehicle. One group of gonadectomized males was treated with Nal-Glu, as an additional control.
GnRH (native decapeptide) was purchased from Bachem (Bubendorf, Switzerland). GnRH antagonist Antide (Acetyl-β-[2-Naphthyl]-D-Ala-D-p-Chloro-Phe-β-[3-Pyridyl]-D-Ala-Ser-Nε-]-Lys-Nε-[Nicotinoyl]-D-Lys-Leu-Nε-[Isopropyl]-Lys-Pro-D-Ala-NH2) was supplied by Contraceptive Development Branch (NICHHD) of the National Institutes of Health and Ares-Serono (Randolph, Mass.). A second GnRH antagonist, Nal-Glu (acetyl-D2Nal1, D4ClPhe2, D3Pal3, Arg5, Dglu6(AA), DAla10) was supplied by NICHHD and was used on a subset of mice. All references to GnRH agonist refer to the native decapeptide. Animals were injected subcutaneously in the nape of the neck six times weekly, in the a.m., with 100 μg of GnRH or GnRH antagonist in 100 μl of vehicle consisting of 50% propylene glycol and 50% double distilled water. […]
Serum testosterone concentrations were measured by RIA using a commercial kit (Coat-A-Count, Diagnostic Products Corporation, Los Angeles, Calif.). Serum LH and prolactin were measured by radioimmunoassay (RIA) using previously described methods. […]

“GnRH agonist: GnRH (native decapeptide) purchased from Bachem; all references to GnRH agonist refer to the native decapeptide (QHWSYGLRPG; Gonadoliberin-1; UniProt P01148 24-33, looked up)” was tested, and the “Timing of onset of diabetes” value ([1]; gonadectomized NOD mice) was “accelerated the timing of onset of diabetes; also recorded: reciprocal effects”, the Incidence of diabetes ([1]; gonadectomized male NOD mice, compared to vehicle, FIG. 2) was “significantly increased the incidence” and the “Serum IgG concentrations” value (gonadectomized NOD mice) was “further increased IgG levels compared to vehicle; also recorded: reciprocal effects”. For the same substance, the Serum prolactin levels (NOD mice) was “neither agonist nor antagonist treatment altered serum prolactin levels”.
